≈ marks a conversion by molar mass, not a printed value. Where no end group is shown, it is not given here.
Columns and labels:
Type in all cases: cell-based
[1] = tested on: Trichophyton rubrum; test: Antifungal MIC by MTT assay; conditions: 28℃, 24 h, MTT readout at 570 nm
[2] = tested on: Malassezia furfur; test: Antifungal MIC by MTT assay; conditions: 28℃, 24 h, MTT readout at 570 nm
[3] = tested on: Candida parapsilosis; test: Antifungal MIC by MTT assay; conditions: 28℃, 24 h, MTT readout at 570 nm
[4] = tested on: Aspergillus fumigatus; test: Antifungal MIC by MTT assay; conditions: 28℃, 24 h, MTT readout at 570 nm
[5] = tested on: Trichosporon beigelii; test: Antifungal MIC by MTT assay; conditions: 28℃, 24 h, MTT readout at 570 nm
[6] = tested on: Aspergillus parasticus; test: Antifungal MIC by MTT assay; conditions: 28℃, 24 h, MTT readout at 570 nm
[7] = tested on: Candida albicans (TIMM 1768); test: Antifungal MIC by MTT assay; conditions: strain TIMM 1768; 28℃, 24 h, MTT readout at 570 nm
[8] = tested on: Aspergillus flavus; test: Antifungal MIC by MTT assay; conditions: 28℃, 24 h, MTT readout at 570 nm
[9] = tested on: Candida albicans (ATCC 90028); test: Antifungal MIC by MTT assay; conditions: strain ATCC 90028; 28℃, 24 h, MTT readout at 570 nm
[10] = tested on: Candida albicans; test: Mechanism of antifungal activity (time-kill, CFU count; cidal or static); conditions: plated over time on YPD agar, 28℃, 24 h, CFU count (Fig. 2)
[11] = tested on: Human erythrocytes; test: Cytotoxicity to human erythrocytes (hemolysis); conditions: for % human erythrocyte hemolysis: 37℃, 90 min, 0.1% Triton X-100 = 100 %; for Cytotoxicity to human erythrocytes (in words): summary of Table 3
[12] = tested on: Candida albicans; test: Activity on dimorphism (FBS-induced hyphae) of pathogenic fungus, microscopy; conditions: hyphae induced with 20% FBS; 37℃, 24 h; microscopy (Fig. 1)

| Compound | MIC [1] | MIC [2] | MIC [3] | MIC [4] | MIC [5] | MIC [6] | MIC [7] | MIC [8] | MIC [9] | Mode of antifungal action, cidal or static (in words) [10] | % human erythrocyte hemolysis ([11]; peptide 3.13 μM) | % human erythrocyte hemolysis ([11]; peptide 6.25 μM) | % human erythrocyte hemolysis ([11]; peptide 12.5 μM) | % human erythrocyte hemolysis ([11]; peptide 25 μM) | % human erythrocyte hemolysis ([11]; peptide 50 μM) | % human erythrocyte hemolysis ([11]; peptide 100 μM) | Cytotoxicity to human erythrocytes (in words) [11] | Effect on hyphae of Candida albicans (in words) [12] |
| --- | --- | --- | --- | --- | --- | --- | --- | --- | --- | --- | --- | --- | --- | --- | --- | --- | --- | --- |
| VTCDVLSFEAKGIAVNHSACALHCIALRKKGGSCQNGVCVCRN (cysteines drawn unpaired) [코프리신] | 20 µM | 5 µM | 10 µM | 5 µM | 10 µM | 10 µM | 5 to 10 µM | 10 µM | 10 µM | 효과적으로 사멸(cidal) | 0% | 0% | 0% | 0% | 0% | 0% | 고농도에서도 전혀 세포 독성을 나타내지 않음 | hyphae를 효과적으로 aggregation시킴 |
| CC[C@H](C)[C@H](NC(=O)CN)C(=O)NCC(=O)N[C@@H](C)C(=O)N[C@H](C(=O)N[C@@H](CC(C)C)C(=O)N[C@@H](CCCCN)C(=O)N[C@H](C(=O)N[C@@H](CC(C)C)C(=O)N[C@H](C(=O)N[C@H](C(=O)NCC(=O)N[C@@H](CC(C)C)C(=O)N1CCC[C@H]1C(=O)N[C@@H](C)C(=O)N[C@@H](CC(C)C)C(=O)N[C@H](C(=O)N[C@@H](CO)C(=O)N[C@@H](Cc1c[nH]c2ccccc12)C(=O)N[C@H](C(=O)N[C@@H](CCCCN)C(=O)N[C@@H](CCCNC(=N)N)C(=O)N[C@@H](CCCCN)C(=O)N[C@@H](CCCNC(=N)N)C(=O)N[C@@H](CCC(N)=O)C(=O)N[C@@H](CCC(N)=O)C(N)=O)[C@@H](C)CC)[C@@H](C)CC)[C@@H](C)O)[C@@H](C)O)C(C)C)C(C)C [멜리틴, reference compound] | 5 µM (≈ 14.2 µg/mL) | 1.25 µM (≈ 3.56 µg/mL) | 5 µM (≈ 14.2 µg/mL) | 2.5 µM (≈ 7.12 µg/mL) | 2.5 µM (≈ 7.12 µg/mL) | 5 µM (≈ 14.2 µg/mL) | 2.5 µM (≈ 7.12 µg/mL) | 2.5 µM (≈ 7.12 µg/mL) | 5 µM (≈ 14.2 µg/mL) | 효과적으로 사멸(cidal) | 98% | 98% | 100% | 100% | 100% | 100% | 낮은 농도에서도 세포 독성이 매우 높게 나타냄 |  |

— patent KR20100108793A, “애기뿔소똥구리로부터 분리된 항진균 활성을 가지는 코프리신 펩타이드 및 그의 용도” (대한민국(농촌진흥청장), priority 2009, dated 2010)
